Target: T1, TMPRSS4 serine protease (Homo sapiens, UniProt Q9NRS4)
T1 construct: TMPRSS4 serine protease domain (205th Val˜437th Leu) was cloned in pET21b/NdeI-XhoI; inferred from pET21b XhoI cloning and Ni-NTA purification) (C); made in house; host or cells: E. coli BL21 (DE3)
Assay: Inhibitory effect on TMPRSS4 serine protease activity using peptide substrate
Format: biochemical
Details: for inhibition at 30 µM / Intracellular protease activity Inhibition % 30 uM: 30 uM compound; for inhibition at 30 µM: read-out: Intracellular protease activity Inhibition % 30 uM; for inhibition at 10 µM / Intracellular protease activity Inhibition % 10 uM: 10 uM compound; for inhibition at 10 µM: read-out: Intracellular protease activity Inhibition % 10 uM; for inhibition at 100 µM: read-out: Intracellular protease activity Inhibition % 100 uM
Method: TMPRSS4 serine protease domain (205th Val˜437th Leu) was cloned in pET21b/NdeI-XhoI, which was introduced in E. coli BL21 (DE3). At this time, FlagX2-enterokinase cleavage site ([…]; total 15 amino acids) was inserted in N-terminal of TMPRSS4 serine protease domain as shown in FIG. 1. The forward and reverse primers for PCR used for the cloning were presented by SEQ. ID. NO: 1 and NO: 2.
The cells were cultured in 10 ml of LB containing ampicillin at 37° C. overnight. IL of LB+ampicillin was added thereto, followed by further culture until OD reached 0.6˜0.8. 0.1 mM IPTG was added thereto, followed by further culture for 16 hours. Cell pellet was obtained, purified by Ni-NTA (Qiagen), and dialyzed. TMPRSS4 serine protease (pro-form) labeled with 2 mg of 2Xflag-enterokinase cleavage site was conjugated to Ni-NTA resin (4°, overnight). Enterokinase (NEB) was treated thereto at the concentration of 0.0002%/w/w at room temperature for 5 hours. The sample was washed, eluted with 50 mM imidazole in 20 mM of sodium phosphate buffer, and then dialyzed.
The protein activity was evaluated by measuring fluorescence shown during hydrolysis of the peptide. […] Reaction was induced after adding 100 μM of the peptide substrate into reaction buffer (50 mM Tris-HCl (pH 8.0), 10 mM CaCl2, 1 μM ZnCl2). Then, fluorescence was measured at 5 minutes interval (excitation 385 nm, emission 455 nm).
Then, fluorescence (excitation 385 nm/emission 455 nm) was measured at 5 minutes interval for 150 minutes. […] Dimethylsulfoxide (DMSO) was used as the negative control.

[1] = kallikrein peptide substrate 100 μM, DMSO negative control
[2] = 100 uM compound, kallikrein peptide substrate 100 μM, DMSO negative control

T1 sequence (Q9NRS4 205-437): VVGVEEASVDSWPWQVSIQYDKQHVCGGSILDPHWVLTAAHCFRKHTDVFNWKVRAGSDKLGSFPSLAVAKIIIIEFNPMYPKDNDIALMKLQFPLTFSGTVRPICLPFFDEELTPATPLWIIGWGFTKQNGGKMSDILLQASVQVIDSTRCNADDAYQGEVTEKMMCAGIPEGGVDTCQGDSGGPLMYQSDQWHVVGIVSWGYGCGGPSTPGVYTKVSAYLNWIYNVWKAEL

Structure (SMILES) | inhibition at 30 µM [1] [%] | inhibition at 10 µM [1] [%] | inhibition at 100 µM [2] [%] | also measured
O=C(Nc1cc(C(F)(F)F)cc(C(F)(F)F)c1)c1cc(Cl)cc(Cl)c1O [Example 2, N-(3,5-bis(trifluoromethyl)phenyl)3,5-dichloro-2-hydroxybenzamide] | 100 |  |  | 
CC(=O)Nc1ccc(O)c(C(=O)Nc2cc(C(F)(F)F)cc(C(F)(F)F)c2)c1 [Example 35, 5-acetamido-N-(3,5-bis(trifluoromethyl)phenyl)-2-hydroxybenzamide] | 0 | 0 |  | 
O=C(Nc1ccc(Br)c(C(F)(F)F)c1)c1cc(Cl)ccc1O [Example 16, N-(4-bromo-3-(trifluoromethyl)phenyl)-5-chloro-2-hydroxybenzamine] |  |  | 98 | Intracellular protease activity Inhibition % 10 uM [1]: 80%; Intracellular protease activity Inhibition % 30 uM [1]: 93%
Cc1cc(Cl)cc(C(=O)Nc2cc(C(F)(F)F)cc(C(F)(F)F)c2)c1O [Example 34, N-(3,5-bis(trifluoromethyl)phenyl)-5-chloro-2-hydroxy-3-methylbenzamide] | 78 | 33 |  | 
O=C(Nc1nccs1)c1cc(Cl)ccc1O [Example 51, 5-chloro-2-hydroxy-N-(thiazole-2-yl)benzamide] | 44 |  | 90 | 
O=C(NC1=NCCS1)c1cc(Cl)ccc1O [Example 69, 5-chloro-N-(4,5-dihydrothiazol-2-yl)-2-hydroxybenzamide] |  | 17 |  | 
Cc1nc(NC(=O)c2cc(Cl)ccc2O)n[nH]1 [Example 75, 5-chloro-2-hydroxy-N-(5-methyl-1H-1,2,4-triazol-3-yl)benzamide] |  | 51 to 100 |  | Intracellular protease activity Inhibition % 10 uM [1]: 58%
Cc1cc(C)nc(NC(=O)c2cc(Cl)ccc2O)n1 [Example 48, 5-chloro-N-(4,6-dimethylpyrimidine-2-yl)-2-hydroxybenzamide] | 0 |  | 0 | 
O=C(Nc1cc(Cl)cc(Cl)c1)c1cc(Cl)ccc1O [Example 61, 5-chloro-N-(3,5-dichlorophenyl)-2-hydroxybenzamide] | 58 | 15 |  | 
N#Cc1ccc(NC(=O)c2cc(Cl)ccc2O)cc1 [Example 12, 5-chloro-N-(4-cyanophenyl)-2-hydroxybenzamide] | 29 |  | 69 | 
O=C(Nc1ccc(C(F)(F)F)cn1)c1cc(Cl)ccc1O [Example 41, 5-chloro-2-hydroxy-N-(5-(trifluoromethyl)pyridine-2-yl)benzamide] | 25 |  | 47 | 
O=C(Nc1cc(C(F)(F)F)cc(C(F)(F)F)c1)c1ccc(Cl)cc1O [Example 54, N-(3,5-bis(trifluoromethyl)phenyl)-4-chloro-2-hydroxybenzamide] | 74 | 29 |  | 
O=C(Nc1cc(C(F)(F)F)cc(C(F)(F)F)c1)c1cc(F)ccc1O [Example 14, N-(3,5-bis(trifluoromethyl)phenyl)-5-fluoro-2-hydroxybenzamide] | 55 | 0 |  | 
O=C(Nc1ccccc1)c1cc(Cl)ccc1O [Example 59, 5-chloro-2-hydroxy-N-phenylbenzamide] | 13 |  | 75 | 
O=C(Nc1cc(C(F)(F)F)ccc1C(F)(F)F)c1cc(Cl)ccc1O [Example 18, N-(2,5-bis(trifluoromethyl)phenyl)-5-chloro-2-hydroxybenzamine] | 54 | 46 |  | 
O=C(Nc1ncc(C(F)(F)F)cc1Cl)c1cc(Cl)ccc1O [Example 46, 5-chloro-N-(3-chloro-5-(trifluoromethyl)pyridine-2-yl)-2-hydroxybenzamide] | 0 |  | 0 | 
O=C(Nc1cc(C(F)(F)F)cc(C(F)(F)F)c1)c1cc(Cl)cnc1O [Example 67, N-(3,5-bis(trifluoromethyl)phenyl)-5-chloro-2-hydroxynicotineamide] | 19 | 0 |  | 
CC1CN(Cc2csc(NC(=O)c3cc(Cl)ccc3O)n2)CC(C)O1 (stereo not drawn) [Example 73, 5-chloro-N-(4-((2,6-dimethylmorpholino)methyl)thiazol-2-yl)-2-hydroxybenzamide] |  |  |  | Intracellular protease activity Inhibition % 10 uM [1]: 85%

Structure (SMILES) | inhibition at 30 µM [1] [%] | inhibition at 10 µM [1] [%] | inhibition at 100 µM [2] [%] | also measured
O=C(Nc1nc(-c2cccnc2)cs1)c1cc(Cl)ccc1O [Example 76, 5-chloro-2-hydroxy-N-(4-(pyridin-3-yl)thiazol-2-yl)benzamide] |  | 30 |  | 
COc1c(C(F)(F)F)cc(NC(=O)c2cc(Cl)ccc2O)cc1C(F)(F)F [Example 39, 5-chloro-2-hydroxy-N-(4-methoxy-3,5-bis-trifluoromethyl-phenyl)-benzamide] | 80 | 51 to 100 |  | Intracellular protease activity Inhibition % 10 uM [1]: 56%
NCCc1ccc(S(=O)(=O)F)cc1 [AEBSF, reference compound] |  |  |  | TMPRSS4 serine protease active form activity (hydrolysis of peptide substrate) (1 mM, trypsin and kallikrein peptide substrates): inhibited
O=C(Nc1ccc(Br)c(C(F)(F)F)c1)c1cc(Cl)ccc1O [Example 63, N-(4-bromo-3-(trifluoromethyl)phenyl)-5-chloro-2-hydroxybenzamide] |  |  |  | Intracellular protease activity Inhibition % 10 uM [1]: 30%; Intracellular protease activity Inhibition % 30 uM [1]: 46%; Intracellular protease activity Inhibition % 100 uM [2]: 98%
O=C(Nc1ccc(C(F)(F)F)cc1)c1cc(Cl)ccc1O [Example 15, 5-chloro-N-(4-(trifluoromethyl)phenyl)-2-hydroxybenzamide] | 100 | 22 |  | 
Cc1csc(NC(=O)c2cc(Cl)ccc2O)n1 [Example 50, 5-chloro-2-hydroxy-N-(4-methylthiazole-2-yl)benzamide] | 0 |  | 67 | 
O=C(Nc1cccc(C(F)(F)F)c1)c1cc(Cl)ccc1O [Example 10, 5-chloro-N-(3-(trifluoromethyl)phenyl)-2-hydroxybenzamide] | 91 | 37 |  | 
O=C(Nc1cc(C(F)(F)F)ccc1Br)c1cc(Cl)ccc1O [Example 20, N-(2-bromo-5-(trifluoromethyl)phenyl)-5-chloro-2-hydroxybenzamide] | 100 | 40 |  | 
O=C(Nc1cc(C(F)(F)F)cc(C(F)(F)F)c1)c1cc(Cl)ccc1OCc1ccccc1 [Example 58, 2-benzyloxy-N-(3,5-bis-trifluoromethyl-phenyl)-5-chlorobenzamide] | 6 | 0 |  | 
NC(=O)c1ccc(O)c(C(=O)Nc2cc(C(F)(F)F)cc(C(F)(F)F)c2)c1 [Example 38, N^3-(3,5-bis-trifluoromethyl-phenyl)-4-hydroxy-isophthalamide] | 21 | 0 |  | 
Cc1nc(NC(=O)c2cc(Cl)ccc2O)sc1C [Example 72, 5-chloro-N-(4,5-dimethylthiazol-2-yl)-2-hydroxybenzamide] |  | 16 |  | 
O=C(Nc1nc2c(s1)CCCC2)c1cc(Cl)ccc1O [Example 70, 5-chloro-2-hydroxy-N-(4,5,6,7-tetrahydrobenzo[d]thiazol-2-yl)benzamide] |  |  |  | Intracellular protease activity Inhibition % 10 uM [1]: 77%
Nc1ccc(O)c(C(=O)Nc2cc(C(F)(F)F)cc(C(F)(F)F)c2)c1 [Example 31, 5-amino-N-(3,5-bis(trifluoromethyl)phenyl)-2-hydroxybenzamide] | 30 | 3 |  | 
N#Cc1cccc(NC(=O)c2cc(Cl)ccc2O)c1 [Example 11, 5-chloro-N-(3-cyanophenyl)-2-hydroxybenzamide] | 47 | 12 | 88 | 
O=C(Nc1nc(C(F)(F)F)cs1)c1cc(Cl)ccc1O [Example 52, 5-chloro-2-hydroxy-N-(4-(trifluoromethyl)thiazole-2-yl)benzamide] | 61 |  | 100 | 
O=C(NCc1cc(C(F)(F)F)cc(C(F)(F)F)c1)c1cc(Cl)ccc1O [Example 24, N-(3,5-bis-trifluoromethyl-benzyl)-5-chloro-2-hydroxy-benzamide] | 63 | 36 |  | 
O=C(Nc1cc(C(F)(F)F)ccc1Cl)c1cc(Cl)ccc1O [Example 23, 5-chloro-N-(2-chloro-5-(trifluoromethyl)phenyl)-2-hydroxybenzamide] | 99 | 51 to 100 | 100 | Intracellular protease activity Inhibition % 10 uM [1]: 64%

Reference: patent US9266872B2, “2-hydroxyarylamide derivative or pharmaceutically acceptable salt thereof, preparation method thereof, and pharmaceutical composition for preventing or treating cancer containing same as active ingredient” (KOREA RESEARCH INSTITUTE OF BIOSCIENCE AND BIOTECHNOLOGY, priority 2011, dated 2016)
